Assay results: patent US9234000B2, “Benzylamine derivatives as inhibitors of plasma kallikrein” (KalVista Pharmaceuticals Limited, priority 2011, dated 2016)
Like-named read-outs stand apart in the source and are kept apart here.

Tests used:
[1] = target: Human KLK1 (Homo sapiens (Human), UniProt P06870); test: Determination of the IC50 for KLK1; assay type: biochemical; details: Human KLK1, 37° C., substrate H-DVal-Leu-Arg-AFC
Description: Determination of the IC50 for KLK1
(§1) KLK1 inhibitory activity in vitro was determined using standard published methods (see e.g. Johansen et al., Int. J. Tiss. Reac. 1986, 8, 185; Shori et al., Biochem. Pharmacol., 1992, 43, 1209; Stürzebecher et al., Biol. Chem. Hoppe-Seyler, 1992, 373, 1025). Human KLK1 (Callbiochem) was incubated at 37° C. with the fluorogenic substrate H-DVal-Leu-Arg-AFC and various concentrations of the test compound. Residual enzyme activity (initial rate of reaction) was determined by measuring the change in optical absorbance at 410 nm and the IC50 value for the test compound was determined.

[2] = target: Human plasma kallikrein (Homo sapiens (Human), UniProt P03952); test: Determination of the IC50 for plasma kallikrein; assay type: biochemical; details: 37° C., read-out: IC50 (human PKal)
Description: Determination of the IC50 for Plasma Kallikrein
as §1, with “Plasma kallikrein” for “KLK1”, “Stiirzebecher” for “Stürzebecher”, “plasma kallikrein (Protogen)” for “KLK1 (Callbiochem)”, “H-DPro-Phe-Arg-AFC” for “H-DVal-Leu-Arg-AFC”

[3] = fluorogenic substrate H-DPro-Phe-Arg-AFC

Sequence of Human KLK1 (P06870 25-262): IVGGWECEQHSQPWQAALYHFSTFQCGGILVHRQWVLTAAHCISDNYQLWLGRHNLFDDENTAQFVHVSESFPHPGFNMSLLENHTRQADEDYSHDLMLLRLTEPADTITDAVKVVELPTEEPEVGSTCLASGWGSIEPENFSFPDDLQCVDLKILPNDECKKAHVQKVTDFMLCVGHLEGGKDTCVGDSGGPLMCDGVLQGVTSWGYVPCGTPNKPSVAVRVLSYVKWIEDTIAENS
Sequence of Human plasma kallikrein (P03952 391-638): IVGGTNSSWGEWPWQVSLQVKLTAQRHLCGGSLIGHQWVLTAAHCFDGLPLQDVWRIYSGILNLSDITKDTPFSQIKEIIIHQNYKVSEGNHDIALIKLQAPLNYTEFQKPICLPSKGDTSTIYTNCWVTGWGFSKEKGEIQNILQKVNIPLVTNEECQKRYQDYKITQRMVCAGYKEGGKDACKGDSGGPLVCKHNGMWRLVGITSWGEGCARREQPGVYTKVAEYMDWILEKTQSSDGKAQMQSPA
Sequence of Human plasma kallikrein (P03952 20-390 partner): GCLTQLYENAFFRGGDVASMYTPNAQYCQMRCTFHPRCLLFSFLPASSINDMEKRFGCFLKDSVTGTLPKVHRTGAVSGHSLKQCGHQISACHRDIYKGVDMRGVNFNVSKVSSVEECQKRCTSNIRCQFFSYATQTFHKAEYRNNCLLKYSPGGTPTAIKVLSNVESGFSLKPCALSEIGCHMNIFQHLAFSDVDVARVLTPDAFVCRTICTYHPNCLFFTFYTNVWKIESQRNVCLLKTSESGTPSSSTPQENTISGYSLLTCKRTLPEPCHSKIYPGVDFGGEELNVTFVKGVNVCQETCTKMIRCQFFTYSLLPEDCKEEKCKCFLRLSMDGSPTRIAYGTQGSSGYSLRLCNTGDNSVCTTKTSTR

IC50 ([1]; Table 12) [µM] | IC50 [2, 3] [µM] | IC50 ([1]; Table 13) [µM] | IC50 ([2]; substrate H-DPro-Phe-Arg-AFC) [µM] | Structure (SMILES)
 | 10 |  |  | CCOc1ccc(C[C@H](C(=O)N[C@@H](Cc2ccccc2)C(=O)NCc2ccc(CN)cc2)N(C)C)cc1 [Example 13, (R)-N-[(S)-1-(4-Aminomethyl-benzylcarbamoyl)-2-phenyl-ethyl]-2-dimethylamino-3-(4-ethoxy-phenyl)-propionamide]
 | ≥ 10 |  |  | CCOc1ccc(C[C@@H](NC(=O)CC)C(=O)N(CC)[C@@H](Cc2ccccc2)C(=O)NCc2ccc(CN)cc2)cc1 [Example 65, (S)-N-(4-Aminomethyl-benzyl)-2-{[(R)-3-(4-ethoxy-phenyl)-2-propionylamino-propionyl]-ethyl-amino}-3-phenyl-propionamide]
8.4 | 10 |  |  | CCOc1ccc(C[C@@H](C(=O)N[C@@H](Cc2ccccc2)C(=O)NCc2ccc(CN)cc2)N(C)C(=O)CC)cc1 [Example 66, (S)-N-(4-Aminomethyl-benzyl)-2-[(S)-3-(4-ethoxy-phenyl)-2-(methyl-propionyl-amino)-propionylamino]-3-phenyl-propionamide]
 |  | > 10 | 0.545 | CCOc1ccc(C[C@@H](NC(=O)C2CC2)C(=O)N[C@@H](Cc2ccccc2)C(=O)NCc2ccc(CN)cc2)cc1 [Example 74, Cyclopropanecarboxylic acid [(R)-1-[(S)-1-(4-aminomethyl-benzylcarbamoyl)-2-phenyl-ethylcarbamoyl]-2-(4-ethoxy-phenyl)-ethyl]-amide]
 |  | 3.6 | 0.452 | CCCCCC(=O)N[C@H](Cc1ccc(OCC)cc1)C(=O)N[C@@H](Cc1ccccc1)C(=O)NCc1ccc(CN)cc1 [Example 76, Hexanoic acid [(R)-1-[(S)-1-(4-aminomethyl-benzylcarbamoyl)-2-phenyl-ethylcarbamoyl]-2-(4-ethoxy-phenyl)-ethyl]-amide]
 |  | > 10 | 1.96 | CCOc1ccc(C[C@@H](NC(=O)NC(C)C)C(=O)N[C@@H](Cc2ccccc2)C(=O)NCc2ccc(CN)cc2)cc1 [Example 77, (R)-N-[(S)-1-(4-Aminomethyl-benzylcarbamoyl)-2-phenyl-ethyl]-3-(4-ethoxy-phenyl)-2-(3-isopropyl-ureido)-propionamide]
 |  | > 10 | 10 | CCCCCCNC(=O)N[C@H](Cc1ccc(OCC)cc1)C(=O)N[C@@H](Cc1ccccc1)C(=O)NCc1ccc(CN)cc1 [Example 78, (R)-N-[(S)-1-(4-Aminomethyl-benzylcarbamoyl)-2-phenyl-ethyl]-3-(4-ethoxy-phenyl)-2-(3-hexyl-ureido)-propionamide]
 |  | > 10 | 0.539 | CCOc1ccc(C[C@@H](NC(=O)c2cc(C)nn2C)C(=O)N[C@@H](Cc2ccccc2)C(=O)NCc2ccc(CN)cc2)cc1 [Example 82, 2,5-Dimethyl-2H-pyrazole-3-carboxylic acid [(R)-1-[(S)-1-(4-aminomethyl-benzylcarbamoyl)-2-phenyl-ethylcarbamoyl]-2-(4-ethoxy-phenyl)-ethyl]-amide]

The remaining lines, values behind:

Structure (SMILES) | IC50 ([1]; Table 12) [µM] | IC50 [2, 3] [µM] | IC50 ([1]; Table 13) [µM] | IC50 ([2]; substrate H-DPro-Phe-Arg-AFC) [µM]
CCOc1ccc(C[C@@H](NC(=O)CC)C(=O)N[C@@H](Cc2ccccc2)C(=O)NCc2ccc(CN)c(F)c2)cc1 [Example 7, (S)-N-(4-Aminomethyl-3-fluoro-benzyl)-2-[(R)-3-(4-ethoxy-phenyl)-2-propionylamino-propionylamino]-3-phenyl-propionamide] | > 1 | 0.074 |  | 
CCOc1ccc(C[C@@H](NC(=O)CC)C(=O)N[C@@H](Cc2ccc(Cl)c(Cl)c2)C(=O)NCc2ccc(CN)cc2)cc1 [Example 16, (S)-N-(4-Aminomethyl-benzyl)-3-(3,4-dichloro-phenyl)-2-[(R)-3-(4-ethoxy-phenyl)-2-propionylamino-propionylamino]-propionamide] | 4.9 | 0.053 |  | 
CCC(=O)N[C@H](Cc1ccc(C(F)(F)F)cc1)C(=O)N[C@@H](Cc1ccc(Cl)c(Cl)c1)C(=O)NCc1ccc(CN)cc1 [Example 19] | > 10 | 10 |  | 
C[C@@H](NC(=O)c1ccccc1)C(=O)N[C@@H](Cc1ccccc1)C(=O)NCc1ccc(CN)cc1 [Example 22, N-{(R)-1-[(S)-1-(4-Aminomethyl-benzylcarbamoyl)-2-phenyl-ethylcarbamoyl]-ethyl}-benzamide] | 9.6 | 10 |  | 
CCOc1ccc(C[C@@H](NC(=O)CC)C(=O)N[C@@H](Cc2ccccc2)C(=O)NCc2ccc(CN)c(Cl)c2)cc1 [Example 23, (S)-N-(4-Aminomethyl-3-chloro-benzyl)-2-[(R)-3-(4-ethoxy-phenyl)-2-propionylamino-propionylamino]-3-phenyl-propionamide] | 5.6 | 0.031 |  | 
CC(C)C[C@@H](NCC(=O)O)C(=O)N[C@@H](Cc1ccccc1)C(=O)NCc1ccc(CN)cc1 [Example 28, {(R)-1-[(S)-1-(4-Aminomethyl-benzylcarbamoyl)-2-phenyl-ethylcarbamoyl]-3-methyl-butylamino}-acetic acid] | > 10 | 8.9 |  | 
COC(=O)CN[C@H](CC1CCCCC1)C(=O)N[C@@H](Cc1ccccc1)C(=O)NCc1ccc(CN)cc1 [Example 46, {(R)-1-[(S)-1-(4-Aminomethyl-benzylcarbamoyl)-2-phenyl-ethylcarbamoyl]-2-cyclohexyl-ethylamino}-acetic acid methyl ester] | > 10 | 1.2 |  | 
COC(=O)CN[C@H](CC1CCCCC1)C(=O)N[C@@H](Cc1ccccc1)C(=O)NCc1ccc(CN)cc1 [Example 47, {(R)-1-[(S)-1-(4-Aminomethyl-benzylcarbamoyl)-2-phenyl-ethylcarbamoyl]-2-cyclohexyl-ethylamino}-acetic acid methyl ester] | > 10 | 2.1 |  | 
CN(CC(N)=O)[C@H](CC1CCCCC1)C(=O)N[C@@H](Cc1ccccc1)C(=O)NCc1ccc(CN)cc1 [Example 48, (R)-N-[(S)-1-(4-Aminomethyl-benzylcarbamoyl)-2-phenyl-ethyl]-2-(carbamoylmethyl-methyl-amino)-3-cyclohexyl-propionamide] | > 10 | 4.7 |  | 
CN(CCO)[C@H](CC1CCCCC1)C(=O)N[C@@H](Cc1ccccc1)C(=O)NCc1ccc(CN)cc1 [Example 49, (R)-N-[(S)-1-(4-Aminomethyl-benzylcarbamoyl)-2-phenyl-ethyl]-3-cyclohexyl-2-[(2-hydroxy-ethyl)-methyl-amino]-propionamide] | > 10 | 2.2 |  | 
NCc1ccc(CNC(=O)[C@H](Cc2ccccc2)NC(=O)[C@@H](CC2CCCCC2)NCC(N)=O)cc1 [Example 50, (R)-N-[(S)-1-(4-Aminomethyl-benzylcarbamoyl)-2-phenyl-ethyl]-2-(carbamoylmethyl-amino)-3-cyclohexyl-propionamide] | 5 | 4.3 |  | 
CCOc1ccc(C[C@@H](N)C(=O)N[C@@H](C(=O)NCc2ccc(CN)cc2)[C@@H](O)c2ccccc2)cc1 [Example 60, (R)-2-Amino-N-[(1R,2S)-1-(4-aminomethyl-benzylcarbamoyl)-2-hydroxy-2-phenyl-ethyl]-3-(4-ethoxy-phenyl)-propionamide] |  | 10 |  | 
CCOc1ccc(C[C@@H](NC(=O)CC)C(=O)N[C@@H](C(=O)NCc2ccc(CN)cc2)[C@@H](O)c2ccccc2)cc1 [Example 62, (2R,3S)-N-(4-Aminomethyl-benzyl)-2-[(R)-3-(4-ethoxy-phenyl)-2-propionylamino-propionylamino]-3-hydroxy-3-phenyl-propionamide] |  | ≥ 10 |  | 
CCOc1ccc(C[C@@H](NC(=O)NCc2ccccc2)C(=O)N[C@@H](Cc2ccccc2)C(=O)NCc2ccc(CN)cc2)cc1 [Example 68, (R)-N-[(S)-1-(4-Aminomethyl-benzylcarbamoyl)-2-phenyl-ethyl]-2-(3-benzyl-ureido)-3-(4-ethoxy-phenyl)-propionamide] |  |  | > 10 | 0.861
CCOc1ccc(C[C@@H](NC(=O)Nc2ccccc2)C(=O)N[C@@H](Cc2ccccc2)C(=O)NCc2ccc(CN)cc2)cc1 [Example 69, (R)-N-[(S)-1-(4-Aminomethyl-benzylcarbamoyl)-2-phenyl-ethyl]-3-(4-ethoxy-phenyl)-2-(3-phenyl-ureido)-propionamide] |  |  | > 10 | 0.621
CCOc1ccc(C[C@@H](NC(=O)c2ccc(OC(F)(F)F)cc2)C(=O)N[C@@H](Cc2ccccc2)C(=O)NCc2ccc(CN)cc2)cc1 [Example 80, N-[(R)-1-[(S)-1-(4-Aminomethyl-benzylcarbamoyl)-2-phenyl-ethylcarbamoyl]-2-(4-ethoxy-phenyl)-ethyl]-4-trifluoromethoxy-benzamide] |  |  | > 10 | 0.398
CCOc1ccc(C[C@@H](NC(=O)c2cc3ccccc3s2)C(=O)N[C@@H](Cc2ccccc2)C(=O)NCc2ccc(CN)cc2)cc1 [Example 83, Benzo[b]thiophene-2-carboxylic acid[(R)-1-[(S)-1-(4-aminomethyl-benzylcarbamoyl)-2-phenyl-ethylcarbamoyl]-2-(4-ethoxy-phenyl)-ethyl]-amide] |  |  | > 10 | 0.254
